Results as given in PMC3612716 (British Journal of Clinical Pharmacology, 2012).

Assays:
[1] = system: patients with type 2 diabetes / healthy subjects; settings: previous findings; cited from earlier work
healthy subjects [2] = assay: Safety and tolerability; type: in vivo, human; settings: ITT population, by treatment
healthy subjects [3] = assay: Thorough QT study: ECG; settings: positive control

| Molecule | changes in QTc at therapeutic concentrations [1] | subjects experiencing adverse events (healthy subjects [2]) [%] | LS mean ΔΔQTcP (two-sided 90% CI) (healthy subjects [3]; 1 h following single 400 mg oral dose) | LS mean ΔΔQTcP (two-sided 90% CI) (healthy subjects [3]; 2 h following single 400 mg oral dose) | LS mean ΔΔQTcP (two-sided 90% CI) (healthy subjects [3]; 3 h following single 400 mg oral dose) |
| --- | --- | --- | --- | --- | --- |
| liraglutide | no clinically meaningful changes in QTc |  |  |  |  |
| COc1c(N2C[C@@H]3CCCN[C@@H]3C2)c(F)cc2c(=O)c(C(=O)O)cn(C3CC3)c12 [moxifloxacin] |  | 23 | 5.47 (2.82, 8.12) ms | 10.56 (8.46, 12.67) ms | 10.93 (8.71, 13.13) |
